Four compounds from patent EP3858438A1, “3,4-DIHYDRO-2H-SPIRO[ISOQUINOLINE-1,4'-PIPERIDIN]AMIDE DERIVATIVES HAVING MULTIMODAL ACTIVITY AGAINST PAIN” (ESTEVE PHARMACEUTICALS, S.A., priority 2020, dated 2021) can be followed below.

The structures appear in SMILES notation. Counter-ions that a name gives are not always drawn. A value given as a limit tells only on which side of the number the result lay.

Usually Ki stands for the dissociation constant of the complex between target and ligand, obtained from inhibition or displacement.

One assay deals with T1, human µ-opioid receptor (Homo sapiens, UniProt P35372).
T1 construct: expressed in transfected cells; host or cells: CHO-K1
The assay can be described thus: Binding assay to human µ-opioid receptor ([3H]-DAMGO, transfected CHO-K1 cell membranes). Particulars: binding expressed as Ki, [3H]-DAMGO 1 nM. As to the method: Binding assay to human µ-opioid receptor
Transfected CHO-K1 cell membranes (20 µg) were incubated with [^3H]-DAMGO (1 nM) in assay buffer containing Tris-HCl 50 mM, MgCl2 5 mM at pH 7.4.
NBS (non-specific binding) was measured by adding 10 µM naloxone. The binding of the test compound was measured at either one concentration (% inhibition at 1 or 10 µM) or five different concentrations to determine affinity values (Ki). Plates were incubated at 27 °C for 60 min. After the incubation period, the reaction mixture was then transferred to MultiScreen HTS, FC plates (Millipore), filtered and plates were washed 3 times with ice-cold 10 mM Tris-HCl (pH 7.4).
Filters were dried and counted at approximately 40% efficiency in a MicroBeta scintillation counter (Perkin-Elmer) using EcoScint liquid scintillation cocktail.

In assay [1] the target is human α2δ-1 subunit of Cav2.2 calcium channel (Homo sapiens, UniProt P54289). The assay can be described thus: Binding assay to human α2δ-1 subunit of Cav2.2 calcium channel ([3H]-Gabapentin). As to conditions: binding expressed as Ki; [3H]-Gabapentin 15 nM, human α2δ-1 enriched membranes. As to the method: Binding assay to human α2δ-1 subunit of Cav2.2 calcium channel.
Human α2δ-1 enriched membranes (2.5 µg) were incubated with 15 nM of radiolabeled [3H]-Gabapentin in assay buffer containing Hepes-KOH 10 mM, pH 7.4.
NSB (non specific binding) was measured by adding 10 µM pregabalin. The binding of the test compound was measured at either one concentration (% inhibition at 1 or 10 µM) or five different concentrations to determine affinity values (Ki). After 60 min incubation at 27 °C, binding reaction was terminated by filtering through Multiscreen GF/C (Millipore) presoaked in 0.5 % polyethyleneimine in Vacuum Manifold Station, followed by 3 washes with ice-cold filtration buffer containing 50 mM Tris-HCl, pH 7.4.
Filter plates were dried at 60 °C for 1 h and 30 µl of scintillation cocktail were added to each well before radioactivity reading.
Readings were performed in a Trilux 1450 Microbeta radioactive counter (Perkin Elmer).

T1 sequence (P35372 whole entry): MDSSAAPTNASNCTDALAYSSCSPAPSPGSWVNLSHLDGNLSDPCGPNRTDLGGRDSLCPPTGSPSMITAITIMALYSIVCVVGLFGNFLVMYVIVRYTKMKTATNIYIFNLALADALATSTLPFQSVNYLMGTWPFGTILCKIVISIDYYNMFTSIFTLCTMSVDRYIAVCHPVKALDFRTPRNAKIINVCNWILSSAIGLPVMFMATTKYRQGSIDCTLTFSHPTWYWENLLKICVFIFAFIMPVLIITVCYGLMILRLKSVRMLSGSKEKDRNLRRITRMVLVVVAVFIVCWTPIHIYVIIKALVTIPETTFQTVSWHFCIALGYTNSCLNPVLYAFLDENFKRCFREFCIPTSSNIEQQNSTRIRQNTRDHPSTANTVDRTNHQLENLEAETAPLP
Chain of human α2δ-1 subunit of Cav2.2 calcium channel (P54289 25-1103): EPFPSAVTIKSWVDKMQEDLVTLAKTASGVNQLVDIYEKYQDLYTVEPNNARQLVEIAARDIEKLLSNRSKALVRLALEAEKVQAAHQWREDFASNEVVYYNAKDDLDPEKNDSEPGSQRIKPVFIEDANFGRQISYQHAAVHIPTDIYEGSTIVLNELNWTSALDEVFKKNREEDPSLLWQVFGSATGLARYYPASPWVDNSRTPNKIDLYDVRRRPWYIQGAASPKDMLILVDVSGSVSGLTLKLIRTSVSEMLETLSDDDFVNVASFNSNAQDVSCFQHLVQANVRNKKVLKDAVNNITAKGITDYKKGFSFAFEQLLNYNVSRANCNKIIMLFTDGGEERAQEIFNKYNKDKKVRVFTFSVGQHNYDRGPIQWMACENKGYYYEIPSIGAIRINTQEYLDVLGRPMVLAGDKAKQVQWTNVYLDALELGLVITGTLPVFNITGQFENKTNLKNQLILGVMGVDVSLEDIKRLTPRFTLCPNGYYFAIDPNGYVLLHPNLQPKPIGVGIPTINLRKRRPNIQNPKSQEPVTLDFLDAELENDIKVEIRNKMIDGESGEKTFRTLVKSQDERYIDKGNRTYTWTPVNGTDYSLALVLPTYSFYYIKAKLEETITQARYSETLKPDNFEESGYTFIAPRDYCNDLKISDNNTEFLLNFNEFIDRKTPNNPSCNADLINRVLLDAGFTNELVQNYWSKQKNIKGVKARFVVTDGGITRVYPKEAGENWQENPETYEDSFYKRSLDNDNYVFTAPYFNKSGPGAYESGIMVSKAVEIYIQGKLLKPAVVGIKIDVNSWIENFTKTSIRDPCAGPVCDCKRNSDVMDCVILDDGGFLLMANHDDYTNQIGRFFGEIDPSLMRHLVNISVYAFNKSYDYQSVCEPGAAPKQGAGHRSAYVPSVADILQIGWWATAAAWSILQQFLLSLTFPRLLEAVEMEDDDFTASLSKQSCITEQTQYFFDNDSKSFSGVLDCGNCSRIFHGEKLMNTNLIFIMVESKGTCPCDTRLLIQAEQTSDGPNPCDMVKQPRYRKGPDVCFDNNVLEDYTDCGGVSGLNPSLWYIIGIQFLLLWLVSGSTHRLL

In the case of `CC[C@@H](c1ccccc1)[C@@H](CN)C(=O)N1CCC2(CC1)c1ccccc1CCN2C` [Example 1], the Ki was less than 100 nM at human µ-opioid receptor and less than 500 nM in assay [1].

As to `CNC[C@@H](C(=O)N1CCC2(CC1)c1ccccc1CCN2C)[C@@H](C)c1ccccc1` [Example 2, (2S,3R)-1-(2-methyl-3,4-dihydro-2H-spiro[isoquinoline-1,4'-piperidin]-1'-yl)-2-((methylamino)methyl)-3-phenylbutan-1-one], the results for the Ki (at human µ-opioid receptor; in assay [1]) were 100 to 500 nM and less than 500 nM, respectively.

As for `CC[C@@H](c1cccc(Cl)c1)[C@@H](CNC)C(=O)N1CCC2(CC1)c1ccccc1CCN2C` [Example 3, (2S,3R)-3-(3-chlorophenyl)-1-(2-methyl-3,4-dihydro-2H-spiro[isoquinoline-1,4'-piperidin]-1'-yl)-2-((methylamino)methyl)pentan-1-one dihydrochloride], the Ki on human µ-opioid receptor was 100 to 500 nM; in assay [1], less than 500 nM.

For the compound `CC[C@@H](c1cccc(Cl)c1)[C@@H](CN)C(=O)N1CCC2(CC1)c1ccccc1CCN2C` [Example 4, (2S,3R)-2-(aminomethyl)-3-(3-chlorophenyl)-1-(2-methyl-3,4-dihydro-2H-spiro[isoquinoline-1,4'-piperidin]-1'-yl)pentan-1-one], the Ki was less than 100 nM on human µ-opioid receptor and less than 500 nM in assay [1].
